How the values were obtained:
Nodal [1] = assay: Nodal expression in C8161 cells (Western blot, real time RT-PCR); assay type: cell-based, human; conditions: anti-Nodal Morpholino
Procedure: A determination of the effects of H9 CMTX on Nodal expression in metastatic melanoma (C8161) and breast carcinoma (MDA-MB-231) cells was undertaken. […] Exposure to H9 CMTX similarly abrogates Nodal mRNA expression in the melanoma and breast carcinoma cells (FIG. 9C).
Protein lysates were prepared and quantified as previously described in Hess et al., 2001, Cancer Res. 61:3250-3255. Equal amounts of protein were separated by SDS-polyacrylamide gel electrophoresis under reducing conditions, and the resolved proteins were transferred onto Immobilon-P membranes (Millipore Corp., Bedford, Mass.). Membranes were blocked in 1% TBS, 0.1% Tween 20 (TBS-T) and 5% dry milk powder or 3% gelatin (for Nodal Westerns). Blots were incubated with anti-Nodal or anti-Lefty antibodies (Polyclonal rabbit anti-Nodal (H-110) 1:500 Santa Cruz Biotechnology, Santa Cruz, Calif.; Polyclonal goat anti-Lefty 1:500 R&D Systems, Minneapolis, Minn.), washed in TBS-T, and incubated with the appropriate horseradish peroxidase-labeled secondary antibody. Secondary antibodies were detected by enhanced chemiluminescence (Super Signal; Pierce, Rockford, Ill.) and exposure to autoradiography film (Molecular Technologies, St Louis, Mo.). Nodal protein was detected as two major bands at ˜48 and ˜35 kDa representing precursor and pro-Nodal respectively. Nodal often appeared as multiple bands, likely due to degradation of protein modifications. All experiments were done at least three times.
The derivation and phenotypic characteristics of the human melanoma cell lines have been previously described. Seftor, et. al., 2002, Clin. Experim. Metastas. 19:233-246; Seftor, et. al., 2005 Cancer Res. 65:10164-10169. The melanoma cell lines are maintained in RPMI 1640 medium (Invitrogen) supplemented with 10% fetal bovine serum (FBS, Gemini Bioproducts) and 0.1% gentamycin sulfate with the exception of C81-61 cells which are maintained in Ham's FIO medium supplemented with 15% FBS, 1X Mito+ (BD Bioscience) and gentamycin sulfate. […] The cultures are determined to be free of mycoplasma contamination using a PCR-based assay (Roche). […]

[2] = system: MDA-MB-231 breast carcinoma cells; assay: In vivo tumor cell proliferation-to-apoptosis ratio (Ki67/TUNEL), MDA-MB-231 derived tumors; conditions: MDA-MB-231 treated before injection into mouse
Description: (A) In vivo tumor formation in a mouse injected with MDA-MB-231 cells pre-exposed for 3 days to either a control matrix (Matrigel) or a matrix conditioned by hESCs (H9 CMTX) (n=10) (B) C81-61 cells, transfected with either an empty vector or a Nodal expression construct (n=5), and (C) MDA-MB-231 cells treated with either MO^Control or MO^Nodal (n=10). […] (D) The ratio of tumor cell proliferation to apoptosis for C8161 and MDA-MB-231 derived tumors, determined by immunohistochemical staining for Ki67 and terminal deoxynucleotidyl transferase biotin-dUTP nick-end labeling (TUNEL). Prior to injection into a mouse, C8161 and MDA-MB-231 cells were cultured for 3 days on control or hESC conditioned (H9 CMTX) matrices, or treated with MO^Nodal to knock down Nodal expression. […] (E) Immunohistochemical analysis of Ki67 expression (red/brown) and TUNEL staining in orthotopic melanoma (C8161) and breast carcinoma (MDA-MB-231) tumors. […] Proliferation is indicated by Ki67 staining and apoptotic nuclei were detected with confocal microscopy as red staining localized to the nuclei of apoptotic C8161 or MDA-MB-231 cells. […]
In order to establish a mechanism by which exposure to the hESC microenvironment abrogates tumorigenicity, the effects of this treatment on the in vivo tumor cell proliferation-to-apoptosis ratio were analyzed. […]

Nodal [3] = assay: Immunohistochemical analysis of Nodal staining in orthotopic C8161 tumors; assay type: in vivo, mouse; conditions: tumors from C8161 treated with anti-Nodal Morpholino, day 17

MO^Nodal: FITC-conjugated anti-sense Morpholino to Nodal, 5′-AAGCAGCACCTCCAGCCCTTATATC-3′ [SEQ ID NO: 20] (all phosphorodiamidate morpholino (PMO); FITC conjugated, position not given here)
Nodal expression (Nodal [1]): down-regulation of Nodal
ratio of proliferation to apoptosis [2]: decreased
Nodal expression in tumors (IHC) (Nodal [3]): started to regain Nodal expression
